Assay results reported in patent US12655116B2, “Substituted isophthalic acid diamides” (Bayer Aktiengesellschaft, priority 2020, dated 2026).

Legend:
MATIN [1] = assay: Post-emergence herbicidal action against MATIN; format: in vivo, Matricaria inodora
Outline: (§1)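 Herbicidal action is a visual percentage rating (0% = as untreated control, 100% = plants dead) made roughly 3 weeks after treatment. Plants were grown in sandy loam in the greenhouse and treated at the one-leaf stage, 2 to 3 weeks post-sowing. Treatment was a foliar spray of wettable-powder or emulsion-concentrate formulations at 600 to 800 l/ha water plus 0.2% wetting agent.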

PHBPU [2] = assay: Pre-emergence herbicidal action against PHBPU; format: in vivo, Pharbitis purpurea; details: dosage 80 g/ha
Outline: (§2)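 Sandy loam pots, seeds covered with soil, then surface-treated with WP or EC formulations at 600–800 l/ha water plus 0.2% wetting agent. Greenhouse, 3 weeks. Percent damage vs untreated controls.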

ALOMY [3] = assay: Pre-emergence herbicidal action against ALOMY; format: in vivo, Alopecurus myosuroides; details: 80 g/ha, pre-emergence, scored visually after 3 weeks vs untreated controls (100% = plants have died, 0% = like control plants)
Outline: as §2

AMARE [4] = assay: Pre-emergence herbicidal action against AMARE; format: in vivo, Amaranthus retroflexus
Outline: as §2

AMARE [5] = assay: Post-emergence herbicidal action against AMARE; format: in vivo, Amaranthus retroflexus; details: 20 g/ha, visual assessment about 3 weeks after treatment, 100% = plants have died, 0% = like control plants
Outline: as §1

DIGSA [6] = assay: Pre-emergence herbicidal action against DIGSA; format: in vivo, Digitaria sanguinalis
Outline: as §2

SETVI [7] = assay: Post-emergence herbicidal action against SETVI; format: in vivo, Setaria viridis
Outline: as §1

ALOMY [8] = assay: Post-emergence herbicidal action against ALOMY; format: in vivo, Alopecurus myosuroides; details: dosage 20 g/ha, visual assessment about 3 weeks after treatment vs untreated controls
Outline: as §1

ABUTH [9] = assay: Post-emergence herbicidal action against ABUTH; format: in vivo, Abutilon theophrasti; details: visual assessment about 3 weeks after treatment vs untreated controls
Outline: as §1

PHBPU [10] = assay: Post-emergence herbicidal action against PHBPU; format: in vivo, Pharbitis purpurea
Outline: as §1

VERPE [11] = assay: Post-emergence herbicidal action against VERPE; format: in vivo, Veronica persica; details: 20 g/ha
Outline: as §1

POLCO = assay: Pre-emergence herbicidal action against POLCO; format: in vivo, Polygonum convolvulus; details: dosage 80 g/ha
Outline: as §2

DIGSA [12] = assay: Post-emergence herbicidal action against DIGSA; format: in vivo, Digitaria sanguinalis; details: for Post-emergence action against DIGSA in %: 5 g/ha; for Post-emergence action against DIGSA: 20 g/ha
Outline: as §1

AVEFA [13] = assay: Post-emergence herbicidal action against AVEFA; format: in vivo, Avena fatua; details: 20 g/ha, visual assessment about 3 weeks after treatment, 100% = plants have died, 0% = like control plants
Outline: as §1

ABUTH [14] = assay: Pre-emergence herbicidal action against ABUTH; format: in vivo, Abutilon theophrasti; details: for Pre-emergence action against ABUTH (herbicidal activity): 80 g/ha, scored visually after 3 weeks vs untreated controls (100% = plants have died, 0% = like control plants); for Pre-emergence action against ABUTH (herbicidal activity in percent): dosage 20 g/ha, scored visually after 3 weeks vs untreated controls, 100% = plants have died, 0% = like control plants
Outline: as §2

ECHCG [15] = assay: Post-emergence herbicidal action against ECHCG; format: in vivo, Echinochloa crus-galli
Outline: as §1

SETVI [16] = assay: Pre-emergence herbicidal action against SETVI; format: in vivo, Setaria viridis; details: dosage 80 g/ha
Outline: as §2

ECHCG [17] = assay: Pre-emergence herbicidal action against ECHCG; format: in vivo, Echinochloa crus-galli; details: 80 g/ha
Outline: as §2

VIOTR [18] = assay: Post-emergence herbicidal action against VIOTR; format: in vivo, Viola tricolor
Outline: as §1

VIOTR [19] = assay: Pre-emergence herbicidal action against VIOTR; format: in vivo, Viola tricolor
Outline: as §2

MATIN [20] = assay: Pre-emergence herbicidal action against MATIN; format: in vivo, Matricaria inodora
Outline: as §2

AVEFA [21] = assay: Pre-emergence herbicidal action against AVEFA; format: in vivo, Avena fatua; details: 80 g/ha, pre-emergence
Outline: as §2

VERPE [22] = assay: Pre-emergence herbicidal action against VERPE; format: in vivo, Veronica persica; details: dosage 80 g/ha
Outline: as §2

[23] = 20 g/ha, scored visually after 3 weeks vs untreated controls, 100% = plants have died, 0% = like control plants
[24] = 80 g/ha, scored visually after 3 weeks vs untreated controls (100% = plants have died, 0% = like control plants)

| Structure (SMILES) | Post-emergence action against MATIN in % (MATIN [1]; dosage 5 g/ha) | Post-emergence action against MATIN in % (MATIN [1]; dosage 20 g/ha) | Pre-emergence action against PHBPU in % (PHBPU [2]) | Pre-emergence action against ALOMY (herbicidal activity) (ALOMY [3]) | Pre-emergence action against AMARE in % (AMARE [4]; [23]) | Pre-emergence action against AMARE in % (AMARE [4]; [24]) | Post-emergence action at 20 g/ha against AMARE in % (AMARE [5]) | Post-emergence action against SETVI in % (SETVI [7]; dosage 20 g/ha) | Post-emergence action against ALOMY in % (ALOMY [8]) | Post-emergence action against ABUTH in % (ABUTH [9]; dosage 5 g/ha) | Post-emergence action against ABUTH in % (ABUTH [9]; dosage 20 g/ha) | Post-emergence action against PHBPU in % (PHBPU [10]; dosage 5 g/ha) | Post-emergence action against PHBPU in % (PHBPU [10]; dosage 20 g/ha) | Pre-emergence action against POLCO in % (POLCO) | Post-emergence action against DIGSA in % (DIGSA [12]) | Post-emergence action against DIGSA (DIGSA [12]) | Post-emergence action at 20 g/ha against AVEFA in % (AVEFA [13]) | Pre-emergence action against ABUTH (herbicidal activity) (ABUTH [14]) | Pre-emergence action against ABUTH (herbicidal activity in percent) (ABUTH [14]) | Post-emergence action against ECHCG in % (ECHCG [15]; dosage 5 g/ha) | also measured |
| --- | --- | --- | --- | --- | --- | --- | --- | --- | --- | --- | --- | --- | --- | --- | --- | --- | --- | --- | --- | --- | --- |
| Cn1nnnc1NC(=O)c1ccc(C(F)(F)F)c(C(=O)NCC(F)F)c1C1CC1 [Example 1-291] | 80% | 90% | 80% | 80% | 100% | 100% | 90% | 80% | 90% | 80% | 90% | 80% | 90% | 80% | 90% | 100% | 80% | 100% | 100% | 80% | Pre-emergence action against DIGSA in % (DIGSA [6]; dosage 20 g/ha): 100%; Pre-emergence action against DIGSA in % (DIGSA [6]; dosage 80 g/ha): 100%; Post-emergence action against VERPE in % (VERPE [11]): 80%; Post-emergence action against ECHCG in % (ECHCG [15]; dosage 20 g/ha): 80%; Pre-emergence action against SETVI in % (SETVI [16]): 100%; Pre-emergence action against ECHCG in % (ECHCG [17]): 90%; Post-emergence action against VIOTR in % (VIOTR [18]; 5 g/ha): 90%; Post-emergence action against VIOTR in % (VIOTR [18]; 20 g/ha): 100%; Pre-emergence action against VIOTR in % (VIOTR [19]; dosage 20 g/ha): 100%; Pre-emergence action against VIOTR in % (VIOTR [19]; dosage 80 g/ha): 100%; Pre-emergence action against MATIN in % (MATIN [20]; dosage 20 g/ha): 90%; Pre-emergence action against MATIN in % (MATIN [20]; dosage 80 g/ha): 100% |
| CCNC(=O)c1c(C(F)(F)F)ccc(C(=O)Nc2nnnn2CC)c1CC [Example 2-272] | 80% | 80% | 80% | 90% | 100% | 100% | 100% | 100% | 90% | 90% | 90% | 90% | 100% | 80% | 90% | 90% | 80% | 100% | 100% | 80% | Post-emergence action against SETVI in % (SETVI [7]; dosage 5 g/ha): 90%; Pre-emergence action against AVEFA in % (AVEFA [21]): 80%; Post-emergence action against ECHCG in % (ECHCG [15]; dosage 20 g/ha): 90%; Pre-emergence action against SETVI in % (SETVI [16]): 100%; Pre-emergence action against VERPE in % (VERPE [22]): 90%; Pre-emergence action against ECHCG in % (ECHCG [17]): 100%; Post-emergence action against VIOTR in % (VIOTR [18]; 20 g/ha): 80%; Pre-emergence action against VIOTR in % (VIOTR [19]; dosage 20 g/ha): 90%; Pre-emergence action against VIOTR in % (VIOTR [19]; dosage 80 g/ha): 100%; Pre-emergence action against MATIN in % (MATIN [20]; dosage 20 g/ha): 100%; Pre-emergence action against MATIN in % (MATIN [20]; dosage 80 g/ha): 100% |
